T/C data for 26 compounds are collected here from PubChem BioAssay AID256 (DTP/NCI, 2004).

SMILES strings stand for the structures. Several values for one entry are separate records, joined by “and”; a condition that tells them apart may be missing. Equal entries are not always repeated. Toxic doses and inconclusive results are not listed.

The assay relates to CD2F1 mice, L1210 leukemia ip, survival T/C. Kind of assay: NCI In Vivo Anticancer Drug Screen. Data for tumor model L1210 Leukemia (intraperitoneal) in CD2F1 (CDF1) mice. The following applies: higher = longer survival. The gist of the method:
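Each value reflects a quotient of treated over vehicle control outcomes in mice with a transplanted tumor.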

Setting [1] is: endpoint: mean survival time, dose: 100.0 mg/kg/injection, schedule: Q01DX009 (ip), vehicle: saline with Tween-80.
Setting [2] is: endpoint: mean survival time, dose: 200.0 mg/kg/injection, schedule: Q01DX009 (ip), vehicle: saline with Tween-80.
The mark [3] stands for this setting: endpoint: mean survival time, dose: 400.0 mg/kg/injection, schedule: Q01DX009 (ip), vehicle: saline with Tween-80.
The mark [4] stands for this setting: endpoint: mean survival time, dose: 2.5 mg/kg/injection, schedule: Q01DX009 (ip), vehicle: saline with Tween-80.
The mark [5] stands for this setting: endpoint: mean survival time, dose: 5.0 mg/kg/injection, schedule: Q01DX009 (ip), vehicle: saline with Tween-80.
The mark [6] stands for this setting: endpoint: mean survival time, dose: 25.0 mg/kg/injection, schedule: Q04DX002 (ip), vehicle: saline with Tween-80.
[7] abbreviates: endpoint: mean survival time, dose: 50.0 mg/kg/injection, schedule: Q04DX002 (ip), vehicle: saline with Tween-80.
Where [8] appears, read: endpoint: mean survival time, dose: 100.0 mg/kg/injection, schedule: Q04DX003 (ip), vehicle: saline with Tween-80.
Setting [9] is: endpoint: mean survival time, dose: 200.0 mg/kg/injection, schedule: Q04DX003 (ip), vehicle: saline with Tween-80.
The mark [10] stands for this setting: endpoint: mean survival time, dose: 400.0 mg/kg/injection, schedule: Q04DX003 (ip), vehicle: saline with Tween-80.
[11] abbreviates: endpoint: mean survival time, dose: 100.0 mg/kg/injection, schedule: Q01DX001 (ip), vehicle: saline with Tween-80.
[12] abbreviates: endpoint: mean survival time, dose: 200.0 mg/kg/injection, schedule: Q01DX001 (ip), vehicle: saline with Tween-80.
Setting [13] is: endpoint: mean survival time, dose: 400.0 mg/kg/injection, schedule: Q01DX001 (ip), vehicle: saline with Tween-80.
Where [14] appears, read: endpoint: mean survival time, dose: 25.0 mg/kg/injection, schedule: Q01DX009 (ip), vehicle: water.
The mark [15] stands for this setting: endpoint: mean survival time, dose: 50.0 mg/kg/injection, schedule: Q01DX009 (ip), vehicle: water.
Where [16] appears, read: endpoint: mean survival time, dose: 100.0 mg/kg/injection, schedule: Q01DX009 (ip), vehicle: water.

As for `O=C1CCC2(CCCCC2)N1`, the T/C was 107 % of control (endpoint: mean survival time, dose: 1.25 mg/kg/injection, schedule: Q01DX009 (ip), vehicle: saline); 107 % of control (endpoint: mean survival time, dose: 2.5 mg/kg/injection, schedule: Q01DX009 (ip), vehicle: saline); 96 % of control (endpoint: mean survival time, dose: 3.13 mg/kg/injection, schedule: Q01DX009 (ip), vehicle: saline); 103 % of control (endpoint: mean survival time, dose: 5.0 mg/kg/injection, schedule: Q01DX009 (ip), vehicle: saline); 101 % of control (endpoint: mean survival time, dose: 6.25 mg/kg/injection, schedule: Q01DX009 (ip), vehicle: saline); 98 % of control and 101 % of control (endpoint: mean survival time, dose: 12.5 mg/kg/injection, schedule: Q01DX009 (ip), vehicle: saline).
Regarding `CCOc1ccccc1NC(=O)NCC(=O)NNC(=O)Nc1ccc(Cl)c([N+](=O)[O-])c1`, the T/C is 92 % of control under setting [1], 92 % of control under setting [2] and 97 % of control under setting [3].
As for `CN(C)Cc1cc(C(C)(C)C)cc(CN(C)C)c1O`, the T/C under setting [4] was 98 % of control; the T/C under setting [5] is 96 % of control; the T/C (endpoint: mean survival time, dose: 10.0 mg/kg/injection, schedule: Q01DX009 (ip), vehicle: saline with Tween-80) was 95 % of control and 100 % of control.
For `O=C(O)c1c2c(nc3c(Cl)cccc13)-c1ccccc1C2`, the T/C under setting [1] is 102 % of control and the T/C under setting [2] is 107 % of control.
Take `C(OC[C@H]1CC[C@@H](COCC2CO2)O1)C1CO1` (stereo partly drawn): the T/C reads like this: (endpoint: mean survival time, dose: 65.0 mg/kg/injection, schedule: Q01DX009 (ip), vehicle: saline) 107 % of control; (endpoint: mean survival time, dose: 108.0 mg/kg/injection, schedule: Q01DX009 (ip), vehicle: saline) 112 % of control; (endpoint: mean survival time, dose: 178.0 mg/kg/injection, schedule: Q01DX001 (ip), vehicle: saline) 100 % of control; (endpoint: mean survival time, dose: 180.0 mg/kg/injection, schedule: Q01DX009 (ip), vehicle: saline) 124 % of control; (endpoint: mean survival time, dose: 267.0 mg/kg/injection, schedule: Q01DX001 (ip), vehicle: saline) 103 % of control; (endpoint: mean survival time, dose: 400.0 mg/kg/injection, schedule: Q01DX001 (ip), vehicle: saline) 109 % of control. Moreover, the T/C (endpoint: mean survival time, dose: 600.0 mg/kg/injection, schedule: Q01DX001 (ip), vehicle: saline) was 121 % of control.
Consider `N#CC(/C=C/c1ccccc1)Nc1ccccc1O` (stereo not drawn), for which the T/C under setting [1] was 93 % of control.
With `CCOC(=O)C1C2CCC(O2)C1C#N` (stereo not drawn), the T/C by setting is: under setting [6], 98 % of control; under setting [7], 98 % of control; (endpoint: mean survival time, dose: 100.0 mg/kg/injection, schedule: Q04DX002 (ip), vehicle: saline with Tween-80) 98 % of control.
For the compound `CCC(=O)Oc1[nH]c(C)c(C(C)=O)c1C`, the T/C was 100 % of control under setting [1]; 102 % of control under setting [8]; 97 % of control under setting [2]; 97 % of control under setting [9]; 100 % of control under setting [3]; 94 % of control under setting [10].
For `CC(C)C(=O)Nc1cccc(Cl)c1`, the T/C is, setting by setting: under setting [8], 97 % of control; under setting [9], 97 % of control; under setting [10], 94 % of control.
As for `O=NN(CCCl)C(=O)Nc1ccc(Br)cn1`, for the setting “endpoint: mean survival time, dose: 20.0 mg/kg/injection, schedule: Q01DX001 (ip), vehicle: carboxymethylcellulose (CMC)”, the T/C was 115 % of control.
Regarding `O=P(NC12CC3CC(CC(C3)C1)C2)(N1CC1)N1CC1`, the T/C (endpoint: mean survival time, dose: 4.8 mg/kg/injection, schedule: Q04DX003 (ip), vehicle: Klucel (hydroxypropylcellulose) (HPC)) is 120 % of control; the T/C (endpoint: mean survival time, dose: 9.6 mg/kg/injection, schedule: Q04DX003 (ip), vehicle: Klucel (hydroxypropylcellulose) (HPC)) was 120 % of control; the T/C (endpoint: mean survival time, dose: 30.0 mg/kg/injection, schedule: Q04DX003 (ip), vehicle: Klucel (hydroxypropylcellulose) (HPC)) was 162 % of control.
`CCC(C#N)C1=CCCCCC1` (stereo not drawn): under setting [8], the T/C is 103 % of control.
In the case of `COc1ccccc1-n1c(C)nc2c(cnn2C2OC(CO)C(O)C2O)c1=O` (stereo not drawn), the T/C was 107 % of control (endpoint: mean survival time, dose: 12.5 mg/kg/injection, schedule: Q01DX005 (ip), vehicle: saline); 101 % of control (endpoint: mean survival time, dose: 25.0 mg/kg/injection, schedule: Q01DX005 (ip), vehicle: saline); 101 % of control (endpoint: mean survival time, dose: 50.0 mg/kg/injection, schedule: Q01DX005 (ip), vehicle: saline); 98 % of control (endpoint: mean survival time, dose: 100.0 mg/kg/injection, schedule: Q01DX005 (ip), vehicle: saline); 101 % of control (endpoint: mean survival time, dose: 200.0 mg/kg/injection, schedule: Q01DX005 (ip), vehicle: saline).
Take `COC(=O)C1OC(OC(C)=O)C(OC(C)=O)C(OC(C)=O)C1C(=O)OC` (stereo not drawn): the T/C is, setting by setting: under setting [11], 93 % of control; under setting [1], 101 % of control; under setting [12], 95 % of control; under setting [2], 105 % of control; under setting [13], 93 % of control; under setting [3], 105 % of control.
As to `O=C(Cn1cc[n+](CC(=O)c2ccccc2)c1)c1ccccc1`, under setting [8], the T/C is 109 % of control.
Take `c1ccc([O+](c2ccccc2)c2ccccc2)cc1`: the T/C (endpoint: mean survival time, dose: 0.63 mg/kg/injection, schedule: Q01DX009 (ip), vehicle: saline with Tween-80) was 102 % of control; the T/C (endpoint: mean survival time, dose: 1.25 mg/kg/injection, schedule: Q01DX009 (ip), vehicle: saline with Tween-80) was 113 % of control; the T/C under setting [4] was 107 % of control; the T/C under setting [5] is 90 % of control and 112 % of control.
Turning to `O=C(NCCNC(=O)c1ccccc1)c1ccccc1`, the T/C was 97 % of control (endpoint: mean survival time, dose: 6.25 mg/kg/injection, schedule: Q04DX002 (ip), vehicle: saline with Tween-80); 93 % of control (endpoint: mean survival time, dose: 12.5 mg/kg/injection, schedule: Q04DX002 (ip), vehicle: saline with Tween-80); 93 % of control under setting [6]; 89 % of control under setting [7]; 94 % of control (endpoint: median survival time, dose: 50.0 mg/kg/injection, schedule: Q04DX002 (ip), vehicle: saline with Tween-80).
Turning to `Cc1ccc(S(=O)(=O)CC(=O)O)cc1`, the T/C was 102 % of control under setting [8] and 102 % of control under setting [9].
For `Nc1c[n+]([O-])cc2ccccc12`, the T/C runs as follows: under setting [8], 94 % of control; under setting [9], 94 % of control.
Take `O=C1Cc2cc3c(cc2C=C2CCCN12)OCO3`: the T/C under setting [14] was 103 % of control; the T/C under setting [15] was 97 % of control; the T/C under setting [16] is 103 % of control; the T/C (endpoint: mean survival time, dose: 400.0 mg/kg/injection, schedule: Q01DX009 (ip), vehicle: water) is 113 % of control.
Consider `Clc1cc2n[nH]nc2c(Cl)n1`, for which the T/C runs as follows: under setting [14], 90 % of control; under setting [15], 90 % of control; under setting [16], 90 % of control.
Consider `NC1CC(CO)C(O)C1O` (stereo not drawn), for which the T/C is 101 % of control (endpoint: mean survival time, dose: 75.0 mg/kg/injection, schedule: Q01DX001 (ip), vehicle: saline); 103 % of control (endpoint: mean survival time, dose: 150.0 mg/kg/injection, schedule: Q01DX001 (ip), vehicle: saline); 107 % of control (endpoint: mean survival time, dose: 300.0 mg/kg/injection, schedule: Q01DX001 (ip), vehicle: saline).
For the compound `OC(CC(CC(O)(C(F)(F)F)C(F)(F)F)=NNc1ccccc1)(C(F)(F)F)C(F)(F)F`, the T/C reads like this: (endpoint: mean survival time, dose: 25.0 mg/kg/injection, schedule: Q01DX009 (ip), vehicle: saline with Tween-80) 92 % of control; (endpoint: mean survival time, dose: 50.0 mg/kg/injection, schedule: Q01DX009 (ip), vehicle: saline with Tween-80) 93 % of control.
As to `c1ccc2c3c(ccc2c1)OCCOCCOCCOCCOc1ccc2ccccc2c1-3`, the T/C was 91 % of control under setting [11], 100 % of control under setting [12] and 100 % of control under setting [13].
Turning to `O.O=[Se](=O)(O)O.[NH-]C1CCCCC1[NH-].[Pt+2]` (stereo not drawn), the T/C is 88 % of control (endpoint: mean survival time, dose: 2.0 mg/kg/injection, schedule: Q01DX009 (ip), vehicle: dextrose); 109 % of control (endpoint: mean survival time, dose: 3.0 mg/kg/injection, schedule: Q01DX009 (ip), vehicle: dextrose); 87 % of control (endpoint: mean survival time, dose: 8.0 mg/kg/injection, schedule: Q04DX003 (ip), vehicle: dextrose).
On to `[N-]=[N+]=NC(=O)c1cnc(OCc2ccccc2)nc1N`, for which the T/C is 91 % of control under setting [11]; 93 % of control under setting [1]; 96 % of control under setting [12]; 96 % of control under setting [2]; 94 % of control under setting [13]; 93 % of control under setting [3].
